Converted amounts (≈) assume the structure as drawn. “Also recorded” adds a separate entry of the source.
What was measured:
[1] = system: Herpes simplex virus Type 2 (Curtis); test: Method 1: inhibition of viral induced cytopathology in primary rabbit kidney cell cultures, HSV-2; assay type: cell-based; conditions: Human alphaherpesvirus 2; HSV-2 (Curtis), primary rabbit kidney cells; total suppression of cytopathology in 50% of cultures; read-out: Minimum Effective Concentration
Method: (§1) Method 1: Confluent monolayers of primary rabbit kidney cell cultures were refed with maintenance medium containing serial dilutions of the test compounds and incubated overnight at 37° C. At each dilution, four cultures were challenged with approximately 10 TCID50 HSV-1, four cultures were challenged with approximately 10 TCID50 HSV-2,and two cultures were left as toxicity controls. Cultures were reincubated at 37° C. and observed for viral induced cytopathology at days 5 and 7. Minimum Effective Concentration (μg/ml) is defined as the concentration of antiviral compound required to totally suppress the development of viral cytopathology in 50% of the infected rabbit kidney cell cultures.

[2] = system: Herpes simplex virus Type 1 (Schooler); test: Method 2: virus plaque reduction in MRC-5 cells, HSV-1; assay type: cell-based
Method: Method 2: Confluent monolayers of MRC-5 cells were incubated for one hour at 37° C. with 50-100 plaque forming units of the indicated virus. Following incubation, the cell monolayers were refed with maintenance medium containing 2% methyl cellulose and the chemical agent indicated. Duplicate cultures were incubated with each concentration of the chemical agent tested. Following further incubation for 3 days at 37° C., the monolayers were stained and the developed virus plaques were counted. The concentration (μg/ml) of each chemical agent which reduced plaque development by 50% (ED50) was determined.

[3] = system: Herpes simplex virus type 1 (HSV-1), strain Schooler; test: Oral treatment of intraperitoneal HSV-1 infection of mice (Example 16); assay type: in vivo, ICR/Ha mice
Method: (§2) Twenty gram ICR/Ha mice were injected intraperitoneally (i.p.) with 0.5 ml of a 10^-5 dilution of a stock preparation of Herpes simplex virus type 1 (HSV-1), strain Schooler. This virus challenge infected each animal with approximately 50 to 100 LD50 s. Starting immediately after virus infection and continuing twice daily for 7 days, each animal was treated by oral gavage in groups of 10 with: 250 μg, 125 μg, 8 μg or 2 μg of (S)-9-(2,3-dihydroxy-1-propoxymethyl)guanine; 500 μg, 125 μg, 31 μg, 8 μg or 2 μg of racemic 9-(2,3-dihydroxy-1-propoxymethyl)guanine; or placebo (physiological saline, pH 11.5). All compounds were solubilized in physiological saline, pH 11.5. The mice were observed daily for 15 days at the same time each day and the day of death was recorded for each animal.
(§3) The statistical analyses were carried out as described in Example 15.

[4] = system: Herpes simplex virus Type 1 (Schooler); test: Method 1: inhibition of viral induced cytopathology in primary rabbit kidney cell cultures, HSV-1; assay type: cell-based; conditions: Human alphaherpesvirus 1; HSV-1 (Schooler), primary rabbit kidney cells; total suppression of cytopathology in 50% of cultures; read-out: Minimum Effective Concentration
Method: as §1

[5] = system: Herpes simplex virus type 1 (HSV-1), strain Schooler; test: Parenteral (subcutaneous) treatment of Herpes simplex virus type 1 infection in mice; assay type: in vivo, ICR/Ha mice; conditions: for Avg. Survival Time / Percent Survival: s.c.
Method: as §2, with “(ip)” for “(i.p.)”, “LD50.” for “LD50 s.”, “4” for “7”, “injected subcutaneously” for “treated by oral gavage”, “with:” for “with: 250 μg, 125 μg, 8 μg or 2 μg of (S)-9-(2,3-dihydroxy-1-propoxymethyl)guanine; 500 μg,”, “compounds A, B or C;” for “racemic 9-(2,3-dihydroxy-1-propoxymethyl)guanine;”
Statistical analyses [reference: Liddel, F.D.K., Evaluation of Survival in Challenge Experiments, Microbiol. Rev., 42, 237 (1978)]were performed on survival times transformed by the negative exponential transformation:
t=number of days an animal survived
T=duration of trial (15 days)
A continuity correction was used to account for daily observation:
Within each group, mice surviving through the trial period were assigned equally values of 0.9 and 1.0 to adjust for termination of the trial.
Average survival time per group was calculated from average corrected transformed survival times [fc (t)] as follows:
t avg=[T/log(0.1).[log(1-fc (t)]

[6] = system: Herpes simplex virus type 1 (HSV-1), strain Schooler; test: Oral treatment of intraperitoneal HSV-1 infection of mice (Example 17); assay type: in vivo, ICR/Ha mice; conditions: for Percent Survival: at 15 days
Method: Twenty gram ICR/Ha mice were injected intraperitoneally (i.p.) with 0.5 ml of a 10^-5 dilution of a stock preparation of Herpes Simplex virus type 1 (HSV-1), strain Schooler. This virus challenge infected mice with approximately 50 to 100 LD50. Starting immediately after virus infection and continuing twice daily for 7 days, each animal was treated by oral gavage in groups of 10 with: 500 μg, 125 μg, 31 μg or 8 μg of (S)-9-(2,3-dihydroxy-1propoxymethyl)guanine; 500 μg, 125 μg, 31 μg or 8 μg of acyclovir or placebo (physiological saline, pH 11.5). All compounds were solubilized in physiological saline, pH 11.5.
as §3

[7] = system: herpes viruses; test: antiviral activity against herpes viruses (general statement)
[8] = 125 μg/dose twice daily for 7 days, 12.5 mg/kg/day
[9] = 500 μg/dose twice daily for 7 days, 50 mg/kg/day

Structure (SMILES): Nc1nc2c(ncn2COC[C@@H](O)CO)c(=O)[nH]1 [A, (S)-9-(2,3-dihydroxy-1-propoxymethyl)guanine]
- minimal effective concentration [1]: 3.1 µg/mL
- fold more effective than B in protecting cell cultures against HSV-1 infection ([2]; A vs B, conclusion of Example 14 (Methods 1 and 2)): 10 to 25 fold
- fold more active than C in protecting cell cultures against HSV-1 infection ([2]; A vs C, conclusion of Example 14 (Methods 1 and 2)): about 2 fold
- EC50 ([2]; Human alphaherpesvirus 1, MRC5, 72 h, HSV-1 (Schooler), MRC-5 cells, 3 days, 50% reduction of plaque development, read-out: ED50 (the source's name)): 0.5 µg/mL (≈ 1.96 µM)
- Avg. Survival Time ([3]; 2 μg/dose twice daily for 7 days, 0.2 mg/kg/day, ^3 (all): not statistically different from placebo): 7.2 days
- Percent Survival ([3]; 2 μg/dose twice daily for 7 days, 0.2 mg/kg/day, at 15 days): 0%
- Avg. Survival Time ([3]; 8 μg/dose twice daily for 7 days, 0.8 mg/kg/day, ^3 (all): not statistically different from placebo): 7.2 days
- Percent Survival ([3]; 8 μg/dose twice daily for 7 days, 0.8 mg/kg/day, at 15 days): 0%
- Avg. Survival Time ([3]; 31 μg/dose twice daily for 7 days, 3.1 mg/kg/day, ^3 (all): not statistically different from placebo): 7.5 days
- Percent Survival ([3]; 31 μg/dose twice daily for 7 days, 3.1 mg/kg/day, at 15 days (acyclovir not at the same time)): 0%
- Avg. Survival Time ([3]; 125 μg/dose twice daily for 7 days, 12.5 mg/kg/day, ^3 (racemate, acyclovir): not statistically different from placebo): 10.2 days
- Percent Survival ([3]; 125 μg/dose twice daily for 7 days, 12.5 mg/kg/day, at 15 days (acyclovir not at the same time)): 20%
- Avg. Survival Time ([3]; 250 μg/dose twice daily for 7 days, 25 mg/kg/day): 9.8 days
- Percent Survival ([3]; 250 μg/dose twice daily for 7 days, 25 mg/kg/day, at 15 days): 10%
- protection over placebo-treated animals, as measured by average survival time ([3]; 12.5 mg/kg/day): conferred significant protection over placebo-treated animals
- protection over placebo-treated animals, as measured by average survival time ([3]; 25 mg/kg/day): conferred significant protection over placebo-treated animals
- minimal effective concentration [4]: 0.8 to 1.5 µg/mL
- relative potency of A to C ([5]; parallel line analysis, not statistically significant): 2.3
- relative potency of A to B ([5]; parallel line analysis, statistically significant): 5.3
- Avg. Survival Time ([5]; 2 μg/dose twice daily for 4 days, 0.2 mg/kg/day, ^3 (all): not statistically different from placebo): 6.1 days
- Percent Survival ([5]; 2 μg/dose twice daily for 4 days, 0.2 mg/kg/day, at 15 days): 0%
- Avg. Survival Time ([5]; 8 μg/dose twice daily for 4 days, 0.8 mg/kg/day, ^3 (all): not statistically different from placebo): 6.7 days
- Percent Survival ([5]; 8 μg/dose twice daily for 4 days, 0.8 mg/kg/day, at 15 days): 0%
- Avg. Survival Time ([5]; 31 μg/dose twice daily for 4 days, 3.1 mg/kg/day, ^3 (all): not statistically different from placebo): 7.6 days
- Percent Survival ([5]; 31 μg/dose twice daily for 4 days, 3.1 mg/kg/day, at 15 days): 10%
- Avg. Survival Time ([5]; 125 μg/dose twice daily for 4 days, 12.5 mg/kg/day, ^3 (B, acyclovir): not statistically different from placebo): 10.7 days
- Percent Survival ([5]; 125 μg/dose twice daily for 4 days, 12.5 mg/kg/day, at 15 days (acyclovir not at the same time)): 40%
- Avg. Survival Time ([6]; 8 μg/dose twice daily for 7 days, 0.8 mg/kg/day, ^b (all): not statistically different from placebo): 6.2 days
- Percent Survival ([6]; 8 μg/dose twice daily for 7 days, 0.8 mg/kg/day): 0%
- Avg. Survival Time ([6]; 31 μg/dose twice daily for 7 days, 3.1 mg/kg/day, ^b (all): not statistically different from placebo): 6.9 days
- Percent Survival ([6]; 31 μg/dose twice daily for 7 days, 3.1 mg/kg/day): 0%
- Avg. Survival Time [6, 8]: 8.1 days
- Percent Survival [6, 8]: 0%
- Avg. Survival Time [6, 9]: 12.9 days
- Percent Survival [6, 9]: 30%
- protection over placebo-treated animals, as measured by average survival time ([6]; 12.5 mg/kg/day): conferred significant protection over placebo-treated animals
- protection over placebo-treated animals, as measured by average survival time ([6]; 50 mg/kg/day): conferred significant protection over placebo-treated animals
- relative potency to acyclovir ([6]; statistically significant): 2.8
- antiviral (antiherpetic) activity ([7]; general statement in words): substantial antiviral activity against various herpes viruses; also recorded: potent antiherpetic activity
- antiviral (antiherpetic) activity compared with acyclovir ([7]; vs 9-(2-hydroxyethoxymethyl)guanine (acyclovir)): significantly greater antiviral activity; also recorded: much more potent
- antiherpetic activity compared with the racemic mixture or the (R)-enantiomer ([7]; vs racemic mixture or (R)-enantiomer): better than the corresponding racemic mixture or the (R)-enantiomer
